# Measurements from patent US12065445B2, “CDK2 inhibitors and methods of using the same” (Cedilla Therapeutics, Inc., priority 2021, dated 2024).
# Test system: Kuramochi cells labeled with mApple-H2B
# Assay: IncuCyte Cell Proliferation Assay
# Format: cell-based
# Details: 72 h
# Procedure: IncuCyte® assay was used to measure the effect of disclosed compounds on cell proliferation. Fluorescent microscopy images of cells were taken immediately after compound treatment and 72 hours later. Image analysis software was used to obtain cell counts as a function of compound concentration. Kuramochi cells labeled with mApple-H2B were seeded on 384-well assay-ready plates. Plates were placed in an IncuCyte® (Sartorius) and scanned at 0 and 72 hours. IncuCyte® software was used to count the number of fluorescent nuclei in each well. The fold change in cell count from 0 to 72 hours in wells treated with increasing compounds concentrations (10 pts, ½ log dilution, 20 μM top concentration) was normalized to DMSO control wells. The normalized cell counts were fit with dose response curves and a […] was calculated.
row,SMILES,IC50 [µM]
1,C[C@@H](OCC1CCOCC1)[C@@H](COC1CCC(F)(F)CC1)NC(=O)[C@@H]1CN(C(=O)c2cncs2)CC12CN(C(=O)[C@H]1CC1(C)C)C2 [I-312],0.5 to 5
2,C[C@@H](OCc1ccc(Cl)cc1)[C@@H](CO)NC(=O)[C@@H]1CN(C(=O)c2cncs2)CC12CN(C(=O)[C@H]1CC1(C)C)C2 [I-404],> 20
3,C[C@@H](OCC1CCCCC1)[C@H](NC(=O)[C@@H]1CN(C(=O)c2cnn(Cc3ccccc3)c2)CC12CN(C(=O)[C@H]1CC1(C)C)C2)C(=O)N1CCC(n2cccn2)CC1 [I-439],≤ 0.5
4,C[C@@H](OCC1CCCCC1)[C@H](NC(=O)[C@@H]1CN(C(=O)c2cnn(Cc3ccccc3)c2)CC12CN(C(=O)[C@H]1CC1(C)C)C2)C(=O)N1CCC(c2nnco2)CC1 [I-449],≤ 0.5
5,C[C@@H](OCC1CCCCC1)[C@H](NC(=O)[C@@H]1CN(C(=O)c2cnn(Cc3ccccc3)c2)CC12CN(C(=O)[C@H]1CC1(C)C)C2)C(=O)N1CCC(c2cnc[nH]2)CC1 [I-438],0.5 to 5
6,CC1(C)C[C@@H]1C(=O)N1CC2(CN(C(=O)c3cncs3)C[C@H]2C(=O)NC(c2cccc(C3CCCCC3)n2)C2CCOC2)C1 (stereo partly shown) [I-493],5 to 20
7,C[C@@H](OCC1CCC(F)(F)CC1)[C@H](NC(=O)[C@@H]1CN(C(=O)c2cncs2)CC12CN(C(=O)[C@H]1CC1(C)C)C2)C(C)(C)O [I-313],0.5 to 5
8,C[C@@H](OCC1CCCCC1)[C@H](NC(=O)[C@@H]1CN(C(=O)c2cnn(Cc3ccccc3)c2)CC12CN(C(=O)[C@H]1CC1(C)C)C2)C(=O)N1CCC(c2ncc[nH]2)CC1 [I-446],0.5 to 5
9,C[C@@H](OCc1ccccc1)[C@H](NC(=O)[C@@H]1CN(C(=O)c2cnn(Cc3ccccc3)c2)CC12CN(C(=O)[C@H]1CC1(C)C)C2)C(=O)N(C)C [I-409],0.5 to 5
10,C[C@@H](OCC1CCOCC1)[C@H](NC(=O)[C@@H]1CN(C(=O)c2cncs2)CC12CN(C(=O)[C@H]1CC1(C)C)C2)C(=O)N1CCC[C@H](COC(F)(F)F)C1 [I-327],5 to 20
11,CNC(=O)[C@@H](NC(=O)[C@@H]1CN(C(=O)c2cncs2)CC12CN(Cc1ccn[nH]1)C2)[C@@H](C)OCC12CCC(CC1)OC2 [I-351],> 20
12,C[C@@H](OCC1CCCCC1)[C@H](NC(=O)[C@@H]1CN(C(=O)c2cnn(Cc3ccccc3)c2)CC12CN(C(=O)[C@H]1CC1(C)C)C2)C(=O)N1CCC(c2cc[nH]n2)CC1 [I-443],≤ 0.5
13,C[C@@H](OCc1ccccc1)[C@H](NC(=O)[C@@H]1CN(C(=O)c2cncs2)CC12CN(C(=O)[C@H]1CC1(C)C)C2)C(=O)N(C)C [I-416],5 to 20
14,C[C@@H](OCC1CCC(F)(F)CC1)[C@@H](COC1CCOCC1)NC(=O)[C@@H]1CN(C(=O)c2cncs2)CC12CN(C(=O)[C@H]1CC1(C)C)C2 [I-314],≤ 0.5
15,COC[C@H]1CCCN(C(=O)[C@@H](NC(=O)[C@@H]2CN(C(=O)c3cncs3)CC23CN(C(=O)[C@H]2CC2(C)C)C3)[C@@H](C)OCC2CCC3(CCC3)CC2)C1 [I-390],≤ 0.5
16,CN(C)C(=O)C(NC(=O)[C@@H]1CN(C(=O)c2cncs2)CC12CN(C(=O)C(C)(C)C1CC1)C2)c1cccc(C2CCOCC2)n1 (stereo partly shown) [I-340],> 20
17,"C[C@@H](OCC1CCC(F)(F)CC1)[C@H](NC(=O)[C@@H]1CN(C(=O)c2cn[nH]c2)CC12CN(C(=O)[C@H]1CC1(C)C)C2)C(=O)N1CCOCC1 [I-301, (S)—N-((2S,3R)-3-((4,4-difluorocyclohexyl)methoxy)-1-morpholino-1-oxobutan-2-yl)-2-((S)-2,2-dimethylcyclopropane-1-carbonyl)-6-(1H-pyrazole-4-carbonyl)-2,6-diazaspiro[3.4]octane-8-carboxamide]",> 20
18,C[C@@H](OCC12CCC(CC1)OC2)[C@H](NC(=O)[C@@H]1CN(C(=O)c2cncs2)CC12CN(C(=O)[C@H]1CC1(C)C)C2)C(=O)N1CCC(OC(F)(F)F)CC1 [I-457],0.5 to 5
19,C[C@@H](OC(C)(C)C1CCCCC1)[C@H](NC(=O)[C@@H]1CN(C(=O)c2cncs2)CC12CN(C(=O)[C@H]1CC1(C)C)C2)C(=O)N1CCCCC1 [I-395],0.5 to 5
